In the assay the test system is PBMCs infected with VSV-G pseudotyped HIV virus stock (VSV-G/pNLG1-P2A-AEnv). Briefly: cells. The note with it: Human immunodeficiency virus 1, PBMC, read-out: TACK EC50. It counts as cell-based.

pEC50: −log10 of the molar value.

Our source for the EC50 values is patent publication US12310945B2, “Cyclohexylglycine derivatives as selective cytotoxic agents” (Merck Sharp & Dohme LLC, priority 2022, dated 2025).

For orientation: pEC50 means the negative decadic logarithm of the EC50, by convention in mol/L. Take `N[C@H](C(=O)N1Cc2ccccc2C1)C1CCCCC1` [Example 3]: the pEC50 was 5.85.
Next, `C#CCOCCO[C@H]1CCN(C2CCC([C@H](N)C(=O)N3Cc4ccccc4C3)CC2)C1` (stereo partly drawn) [Example 5]: 6.27; `N[C@H](C(=O)N1Cc2ccccc2C1)[C@H]1CC[C@H](N2CCCC2)CC1` [Example 1, (2S)-2-amino-1-(1,3-dihydroisoindol-2-yl)-2-[(1R,4S)-4-(pyrrolidin-1-yl)cyclohexyl]ethanone]: 6.68; `N[C@H](C(=O)N1Cc2ccccc2C1)[C@H]1CC[C@@H](O)CC1` [Example 2]: 5.19.
Next, `C#CCO[C@H]1CCN(C2CCC([C@H](N)C(=O)N3Cc4ccccc4C3)CC2)C1` (stereo partly drawn) [Example 6]: 6.64.
Next, `N#C[C@@H]1C[C@H](F)CN1C(=O)[C@@H](N)C1CCCCC1` [Example 4]: 6.50.
